From patent publication US9127015B2, “Tricyclopyrazole derivatives” (NERVIANO MEDICAL SCIENCES S.R.L., priority 2009, dated 2015)
“And” between values parts separate entries of the source, which are not always exact repeats. Equal entries are not always repeated.

Legend:
Experiment in all cases: Kinase inhibition assay, IC50 (Table A)
Format in all cases: biochemical
ZAP70 = biological target: T1, ZAP70 (Homo sapiens, UniProt P43403); settings: Enzyme ZAP70
T1 sequence (P43403 1-619): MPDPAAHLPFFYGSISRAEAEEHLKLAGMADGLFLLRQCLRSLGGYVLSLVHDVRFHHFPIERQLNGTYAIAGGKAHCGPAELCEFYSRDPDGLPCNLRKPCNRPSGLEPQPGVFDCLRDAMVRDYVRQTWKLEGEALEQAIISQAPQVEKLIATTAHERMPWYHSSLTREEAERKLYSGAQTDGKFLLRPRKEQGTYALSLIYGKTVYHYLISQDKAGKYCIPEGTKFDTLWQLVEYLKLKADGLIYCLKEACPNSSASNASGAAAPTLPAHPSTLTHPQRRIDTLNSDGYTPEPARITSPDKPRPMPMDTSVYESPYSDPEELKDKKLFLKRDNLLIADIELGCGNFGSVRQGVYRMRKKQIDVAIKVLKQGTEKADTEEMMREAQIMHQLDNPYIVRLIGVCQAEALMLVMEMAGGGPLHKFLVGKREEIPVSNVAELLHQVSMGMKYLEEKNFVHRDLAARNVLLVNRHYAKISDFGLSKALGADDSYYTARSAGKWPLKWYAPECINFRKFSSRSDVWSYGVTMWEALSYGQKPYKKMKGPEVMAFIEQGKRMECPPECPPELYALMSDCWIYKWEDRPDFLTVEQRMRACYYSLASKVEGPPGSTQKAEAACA
Method: (§1) The inhibiting activity of putative kinase inhibitors and the potency of selected compounds is determined through a method of assay based on the use of the Kinase-Glo® Luminescent Kinase Assay (commercially available from Promega corporation and described in Koresawa, M. and Okabe, T. (2004) High-throughput screening with quantitation of ATP consumption: A universal non-radioisotope, homogeneous assay for protein kinase. Assay Drug Dev. Technol. 2, 153-60).
(§2) The inhibitory activity of putative kinase inhibitors and the potency of selected compounds were also determined using a trans-phosphorylation assay.
(§3) Specific peptide or protein substrates are trans-phosphorylated by their specific ser-thr or tyr kinase in the presence of ATP traced with ^33P-γ-ATP, and in the presence of their own optimal buffer and cofactors. At the end of the phosphorylation reaction, more than 98% unlabeled ATP and radioactive ATP is captured by an excess of the ion exchange dowex resin; the resin then settles down to the bottom of the reaction plate by gravity. Supernatant is subsequently withdrawn and transferred into a counting plate, then evaluated by β-counting.
(§4) Reaction conditions are target (enzyme) dependent and thus undergo individual adaptations. Also the buffer conditions may vary depending on the kinase of interest. The assay can be used with virtually any kinase and substrate combination and is suitable for all type of protein kinases, such as ABL, ACK1, AKT1, ALK, AUR1, AUR2, BRK, BUB1, CDC7/DBF4, CDK21CYCA, CHK1, CK2, EEF2K, EGFR1, EphA2, EphB4, ERK2, FAK, FGFR1, FLT3, GSK3beta, Haspin, IGFR1, IKK2, IR, JAK1, JAK2, JAK3, KIT, LCK, LYN, MAPKAPK2, MELK, MET, MNK2, MPSI, MST4, NEK6, NIM1, P38alpha, PAK-4, PDGFR, PDK1, PERK, PIM1, PIM2, PKAalpha, PKCbeta, PLK1, RET, ROS1, SULU1, Syk, TLK2, TRKA, TYK, VEGFR2, VEGFR3, ZAP70.

KIT = KIT (Homo sapiens, UniProt P10721); settings: Enzyme KIT
Method: as §1, §2, §3, §4

ABL = ABL (Homo sapiens, UniProt P00519); settings: Enzyme ABL
Method: as §1, §2, §3, §4

ACK1 = ACK1 (Homo sapiens, UniProt Q07912); settings: Enzyme ACK1
Method: as §1, §2, §3, §4

LCK = LCK (Homo sapiens, UniProt P06239); settings: Enzyme LCK
Method: as §1, §2, §3, §4

VEGFR3 = VEGFR3 (Homo sapiens, UniProt P35916); settings: Enzyme VEGFR3
Method: as §1, §2, §3, §4

BRK = BRK (Homo sapiens, UniProt Q13882); settings: Enzyme BRK
Method: as §1, §2, §3, §4

ALK = ALK (Homo sapiens, UniProt Q9UM73); settings: Enzyme ALK
Method: as §1
As example herein are reported the assay conditions used for testing the compounds of formula (I) against ALKtide YFF APCo kinase; • ATP concentration: 1 μM • Enzyme concentration: 100 nM • Reaction buffer: Hepes 50 mM pH 7.5, MgCl2 5 mM, MnCl2 1 mM, DTT 1 mM, Na3VO4 3 uM, 0.2 mg/ml BSA. • Assay procedure: add 5 ul compound of formula (I) (3×), add 5 μl ATP/S mix (3×) in buffer 1×; add 5 μl enzyme in buffer 2×+3×BSA; for the blank, add 5 μl buffer 2×+3×BSA without enzyme. After 90 minutes of incubation, add 15 μl/well of Kinase-Glo reagent. After 60-90 minutes of incubation to stabilize the luminescent signal, the plates are read on a ViuwLux instrument.
as §2, §3
Reaction conditions are target (enzyme) dependent and thus undergo individual adaptations. Also the buffer conditions may vary depending on the kinase of interest. […]

MELK = MELK (Homo sapiens, UniProt Q14680); settings: Enzyme MELK
Method: as §1, §2, §3, §4

Syk = Syk (Homo sapiens, UniProt P43405); settings: Enzyme Syk
Method: as §1, §2, §3, §4

LYN = LYN (Homo sapiens, UniProt P07948); settings: Enzyme LYN
Method: as §1, §2, §3, §4

PKCbeta = PKCbeta (Homo sapiens, UniProt P05771); settings: Enzyme PKCbeta
Method: as §1, §2, §3, §4

FGFR1 = FGFR1 (Homo sapiens, UniProt P11362); settings: Enzyme FGFR1
Method: as §1, §2, §3, §4

MELK, sequence (Q14680 whole entry): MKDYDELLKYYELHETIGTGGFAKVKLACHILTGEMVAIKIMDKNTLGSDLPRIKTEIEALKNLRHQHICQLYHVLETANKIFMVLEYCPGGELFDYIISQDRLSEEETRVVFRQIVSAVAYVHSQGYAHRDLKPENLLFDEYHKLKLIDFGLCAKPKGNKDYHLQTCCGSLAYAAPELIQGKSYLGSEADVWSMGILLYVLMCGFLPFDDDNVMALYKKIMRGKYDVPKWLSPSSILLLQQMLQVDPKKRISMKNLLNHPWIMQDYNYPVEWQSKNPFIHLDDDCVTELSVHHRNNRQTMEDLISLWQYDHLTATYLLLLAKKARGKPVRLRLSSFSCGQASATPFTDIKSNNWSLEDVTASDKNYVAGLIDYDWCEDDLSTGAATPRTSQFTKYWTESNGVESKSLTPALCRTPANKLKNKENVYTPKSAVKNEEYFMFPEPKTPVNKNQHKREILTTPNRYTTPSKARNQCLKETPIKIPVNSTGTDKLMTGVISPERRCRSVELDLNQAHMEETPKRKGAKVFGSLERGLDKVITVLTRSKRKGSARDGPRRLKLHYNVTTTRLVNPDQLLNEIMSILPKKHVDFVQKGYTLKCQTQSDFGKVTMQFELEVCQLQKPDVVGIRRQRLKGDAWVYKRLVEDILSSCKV
KIT, sequence (P10721 26-976): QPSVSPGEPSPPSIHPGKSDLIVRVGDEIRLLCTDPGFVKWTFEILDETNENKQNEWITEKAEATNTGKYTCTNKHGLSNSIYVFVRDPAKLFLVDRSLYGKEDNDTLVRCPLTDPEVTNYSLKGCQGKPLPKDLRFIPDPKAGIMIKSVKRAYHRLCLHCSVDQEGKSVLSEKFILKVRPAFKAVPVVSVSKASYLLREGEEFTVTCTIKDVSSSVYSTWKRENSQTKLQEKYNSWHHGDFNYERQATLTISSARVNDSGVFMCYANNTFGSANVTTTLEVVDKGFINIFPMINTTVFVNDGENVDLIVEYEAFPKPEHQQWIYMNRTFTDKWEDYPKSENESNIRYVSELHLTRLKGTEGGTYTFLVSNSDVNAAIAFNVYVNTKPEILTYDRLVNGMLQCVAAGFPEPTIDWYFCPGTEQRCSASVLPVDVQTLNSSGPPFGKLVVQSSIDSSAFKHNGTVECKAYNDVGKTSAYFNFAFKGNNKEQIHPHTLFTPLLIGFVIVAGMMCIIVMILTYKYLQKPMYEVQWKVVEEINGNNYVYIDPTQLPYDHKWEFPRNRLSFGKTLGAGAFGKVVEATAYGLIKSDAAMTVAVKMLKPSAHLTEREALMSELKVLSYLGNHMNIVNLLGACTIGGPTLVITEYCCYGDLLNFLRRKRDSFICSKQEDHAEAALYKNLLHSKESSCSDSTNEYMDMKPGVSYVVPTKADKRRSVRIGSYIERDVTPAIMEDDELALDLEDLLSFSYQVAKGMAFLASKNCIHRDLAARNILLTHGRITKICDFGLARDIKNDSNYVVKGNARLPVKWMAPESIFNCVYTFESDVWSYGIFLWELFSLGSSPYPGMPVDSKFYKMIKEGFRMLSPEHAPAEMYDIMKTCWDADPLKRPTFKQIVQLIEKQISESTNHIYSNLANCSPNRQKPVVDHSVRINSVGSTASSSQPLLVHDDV
BRK, sequence (Q13882 whole entry): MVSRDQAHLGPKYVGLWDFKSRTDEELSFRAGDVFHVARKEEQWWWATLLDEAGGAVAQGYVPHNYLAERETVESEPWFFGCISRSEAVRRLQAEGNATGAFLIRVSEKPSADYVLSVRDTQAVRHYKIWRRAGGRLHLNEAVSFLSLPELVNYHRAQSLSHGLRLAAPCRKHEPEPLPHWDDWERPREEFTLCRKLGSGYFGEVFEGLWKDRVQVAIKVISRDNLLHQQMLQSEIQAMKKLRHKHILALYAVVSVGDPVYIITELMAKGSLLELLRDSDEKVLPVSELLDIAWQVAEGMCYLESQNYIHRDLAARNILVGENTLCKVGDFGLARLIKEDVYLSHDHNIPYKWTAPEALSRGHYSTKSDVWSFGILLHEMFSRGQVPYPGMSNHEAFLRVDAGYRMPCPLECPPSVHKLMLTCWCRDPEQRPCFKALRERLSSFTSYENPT
ACK1, sequence (Q07912 whole entry): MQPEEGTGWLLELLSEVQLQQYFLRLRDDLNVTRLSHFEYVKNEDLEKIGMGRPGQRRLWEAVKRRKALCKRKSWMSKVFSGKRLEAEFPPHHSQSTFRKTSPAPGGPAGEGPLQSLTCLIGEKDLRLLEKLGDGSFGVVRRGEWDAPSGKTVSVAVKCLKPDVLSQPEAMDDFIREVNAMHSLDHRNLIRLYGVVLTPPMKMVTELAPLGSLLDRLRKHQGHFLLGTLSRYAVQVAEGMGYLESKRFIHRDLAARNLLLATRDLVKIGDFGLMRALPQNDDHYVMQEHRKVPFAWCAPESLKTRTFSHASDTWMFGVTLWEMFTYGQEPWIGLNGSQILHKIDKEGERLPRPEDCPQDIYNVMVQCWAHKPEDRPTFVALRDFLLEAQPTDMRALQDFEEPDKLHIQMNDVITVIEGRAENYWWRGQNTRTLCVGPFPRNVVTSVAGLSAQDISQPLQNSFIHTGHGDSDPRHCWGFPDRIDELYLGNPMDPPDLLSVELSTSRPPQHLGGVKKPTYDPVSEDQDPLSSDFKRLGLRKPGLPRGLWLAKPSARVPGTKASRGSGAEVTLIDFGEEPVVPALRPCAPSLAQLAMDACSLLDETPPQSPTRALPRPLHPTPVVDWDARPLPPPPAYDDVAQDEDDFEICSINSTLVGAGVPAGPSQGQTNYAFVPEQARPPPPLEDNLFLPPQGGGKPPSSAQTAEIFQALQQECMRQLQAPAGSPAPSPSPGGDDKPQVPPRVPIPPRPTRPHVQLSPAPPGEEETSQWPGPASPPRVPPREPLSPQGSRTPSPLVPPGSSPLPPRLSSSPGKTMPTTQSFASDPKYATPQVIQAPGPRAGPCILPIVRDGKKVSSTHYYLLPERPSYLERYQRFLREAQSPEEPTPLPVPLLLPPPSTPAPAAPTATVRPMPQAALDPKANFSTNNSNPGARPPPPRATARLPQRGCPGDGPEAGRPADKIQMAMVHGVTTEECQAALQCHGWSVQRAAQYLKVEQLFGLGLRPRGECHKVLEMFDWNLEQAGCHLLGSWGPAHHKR
ABL, sequence (P00519 whole entry): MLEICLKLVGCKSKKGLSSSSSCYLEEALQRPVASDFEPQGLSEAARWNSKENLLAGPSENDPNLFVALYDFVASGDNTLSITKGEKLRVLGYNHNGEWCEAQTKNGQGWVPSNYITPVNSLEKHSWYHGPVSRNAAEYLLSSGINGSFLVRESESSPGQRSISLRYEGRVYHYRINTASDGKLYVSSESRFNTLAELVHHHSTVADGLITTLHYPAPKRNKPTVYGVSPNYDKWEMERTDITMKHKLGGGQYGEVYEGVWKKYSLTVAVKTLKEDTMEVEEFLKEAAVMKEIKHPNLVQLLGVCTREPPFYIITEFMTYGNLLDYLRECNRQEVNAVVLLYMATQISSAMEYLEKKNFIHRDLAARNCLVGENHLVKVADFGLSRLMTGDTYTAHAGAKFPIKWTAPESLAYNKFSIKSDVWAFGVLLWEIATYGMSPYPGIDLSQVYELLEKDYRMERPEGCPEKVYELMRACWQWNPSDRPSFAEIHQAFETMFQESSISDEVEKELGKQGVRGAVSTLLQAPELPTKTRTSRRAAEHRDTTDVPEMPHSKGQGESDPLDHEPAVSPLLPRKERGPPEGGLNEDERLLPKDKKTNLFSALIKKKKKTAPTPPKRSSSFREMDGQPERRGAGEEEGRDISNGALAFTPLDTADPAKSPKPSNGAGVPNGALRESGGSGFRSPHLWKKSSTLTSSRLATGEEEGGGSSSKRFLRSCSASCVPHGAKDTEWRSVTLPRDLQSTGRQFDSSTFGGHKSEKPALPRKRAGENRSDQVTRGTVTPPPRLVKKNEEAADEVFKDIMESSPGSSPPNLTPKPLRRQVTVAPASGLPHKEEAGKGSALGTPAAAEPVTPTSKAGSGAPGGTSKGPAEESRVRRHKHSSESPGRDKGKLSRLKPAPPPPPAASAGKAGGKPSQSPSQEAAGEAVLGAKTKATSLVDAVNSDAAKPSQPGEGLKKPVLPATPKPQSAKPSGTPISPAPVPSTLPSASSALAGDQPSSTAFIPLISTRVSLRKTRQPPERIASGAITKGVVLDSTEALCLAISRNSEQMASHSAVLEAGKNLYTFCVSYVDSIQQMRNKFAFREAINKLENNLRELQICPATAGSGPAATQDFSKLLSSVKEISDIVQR
LCK, sequence (P06239 whole entry): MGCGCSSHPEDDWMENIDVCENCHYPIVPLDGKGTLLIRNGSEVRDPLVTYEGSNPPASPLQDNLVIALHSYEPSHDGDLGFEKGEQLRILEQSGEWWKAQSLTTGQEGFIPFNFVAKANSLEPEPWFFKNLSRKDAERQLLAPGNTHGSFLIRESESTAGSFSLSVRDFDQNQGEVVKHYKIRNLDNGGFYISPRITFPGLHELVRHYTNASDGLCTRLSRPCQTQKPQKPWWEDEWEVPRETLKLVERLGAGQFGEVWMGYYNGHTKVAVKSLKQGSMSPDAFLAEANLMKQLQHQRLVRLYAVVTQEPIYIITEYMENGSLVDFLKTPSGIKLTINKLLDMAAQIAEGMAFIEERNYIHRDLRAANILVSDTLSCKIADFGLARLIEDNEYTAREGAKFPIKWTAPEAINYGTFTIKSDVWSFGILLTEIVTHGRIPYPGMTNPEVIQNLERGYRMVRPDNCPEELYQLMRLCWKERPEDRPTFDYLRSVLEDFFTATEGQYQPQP

Compound	IC50 (KIT) [nM]	IC50 (ABL)	IC50 (ACK1)	also measured
O=C(NCc1ccncc1)c1cc2n(c1)CCCc1c(NC(=O)c3ccccc3)n[nH]c1-2 [Example A1-M2-B25]				IC50 (ZAP70): 1560 nM
O=C(Nc1n[nH]c2c1CCn1cc(C(=O)N3CCCC3)cc1-2)c1ccccc1Cl [Example A5-M1-B8]	5980	1860 nM and 2230 nM	630 nM and 480 nM	
O=C(Nc1n[nH]c2c1CCn1cc(C(=O)N3CCC(N4CCCCC4)CC3)cc1-2)c1ccccc1Cl [Example A5-M1-B34]	4130	820 nM	360 nM	IC50 (LCK): 3990 nM; IC50 (VEGFR3): 4940 nM; IC50 (BRK): 860 nM; IC50 (ALK): 5810 nM
CCN1CCN(C(=O)c2cc3n(c2)CCc2c(NC(=O)c4ccccc4Cl)n[nH]c2-3)CC1 [Example A5-M1-B37]		5100 nM	1000 nM	IC50 (BRK): 5770 nM
O=C(NCC1CC1)c1cc2n(c1)CCc1c(NC(=O)c3ccccc3Cl)n[nH]c1-2 [Example A5-M1-B41]	1830	400 nM	960 nM	IC50 (LCK): 1150 nM; IC50 (BRK): 4350 nM
O=C(Nc1n[nH]c2c1CCn1cc(C(=O)N3CCCCC3)cc1-2)c1ccccc1Cl [Example A5-M1-B42]	6610	1790 nM	440 nM	IC50 (BRK): 3640 nM
O=C(NCc1cccs1)c1cc2n(c1)CCc1c(NC(=O)c3cccc(F)c3)n[nH]c1-2 [Example A8-M1-B16]	2680			
O=C(NCCc1ccc(Cl)cc1)c1cc2n(c1)CCc1c(NC(=O)c3ccco3)n[nH]c1-2 [Example A9-M1-B13]	5850			
O=C(NCc1cccs1)c1cc2n(c1)CCc1c(NC(=O)c3ccco3)n[nH]c1-2 [Example A9-M1-B16]	850			
O=C(NCc1cccs1)c1cc2n(c1)CCc1c(NC(=O)c3ccc4c(c3)OCO4)n[nH]c1-2 [Example A11-M1-B16]	2660			
CN1CCN(c2ccc(C(=O)Nc3n[nH]c4c3CCn3cc(C(=O)N(C)C)cc3-4)cc2)CC1 [Example A16-M1-B19]	4470			
O=C(Nc1n[nH]c2c1CCn1cc(C(=O)N3CCCC3)cc1-2)c1ccccc1F [Example A20-M1-B8]	2020	2430 nM	1040 nM	
Cc1ccccc1C(=O)Nc1n[nH]c2c1CCn1cc(C(=O)N3CCCC3)cc1-2 [Example A21-M1-B8]		4940 nM	630 nM	
Cc1ccccc1C(=O)Nc1n[nH]c2c1CCn1cc(C(=O)N3CCC(N4CCCCC4)CC3)cc1-2 [Example A21-M1-B34]		5340 nM	890 nM	IC50 (BRK): 5060 nM
C=CCNC(=O)c1cc2n(c1)CCc1c(NC(=O)c3ccccc3C)n[nH]c1-2 [Example A21-M1-B36]	5030	3230 nM	3340 nM	IC50 (LCK): 5140 nM
Cc1ccccc1C(=O)Nc1n[nH]c2c1CCn1cc(C(=O)N3CCSCC3)cc1-2 [Example A21-M1-B38]			2040 nM	IC50 (BRK): 6300 nM
CCN1CCN(C(=O)c2cc3n(c2)CCCc2c(NC(=O)c4cc(C)cc(C)c4)n[nH]c2-3)CC1 [Example A24-M2-B37]				IC50 (MELK): 3000 nM; IC50 (ZAP70): 1150 nM; IC50 (Syk): 2780 nM

Compound	IC50 (KIT) [nM]	IC50 (ABL)	IC50 (ACK1)	also measured
Cc1ccc(C(=O)Nc2n[nH]c3c2CCCn2cc(C(=O)N4CCCC4)cc2-3)cc1F [Example A30-M2-B8]				IC50 (MELK): 2570 nM; IC50 (ZAP70): 590 nM; IC50 (Syk): 2100 nM
O=C(Nc1n[nH]c2c1CCCn1cc(C(=O)NC3CCCC3)cc1-2)c1cccnc1 [Example A32-M2-B28]				IC50 (MELK): 3090 nM; IC50 (ZAP70): 800 nM; IC50 (Syk): 1630 nM
CC(C)(C)C(=O)Nc1n[nH]c2c1CCCn1cc(C(=O)N3CCC(N4CCCCC4)CC3)cc1-2 [Example A33-M2-B34]			1440 nM	IC50 (MELK): 1230 nM; IC50 (ZAP70): 720 nM; IC50 (Syk): 480 nM
Cc1ccc(C(=O)Nc2n[nH]c3c2CCn2cc(C(=O)N4CCCC4)cc2-3)c(C)c1 [Example A35-M1-B8, 2,4-dimethyl-N-[8-(pyrrolidin-1-ylcarbonyl)-4,5-dihydro-1H-pyrazolo[4,3-g]indolizin-3-yl]benzamide]	3520	3500 nM	490 nM and 300 nM	IC50 (LYN): 2130 nM
CCCN1CCN(C(=O)c2cc3n(c2)CCc2c(NC(=O)c4ccc(C)cc4C)n[nH]c2-3)CC1 [Example A35-M1-B32]			1210 nM	
Cc1ccc(C(=O)Nc2n[nH]c3c2CCn2cc(C(=O)N4CCC(N5CCCCC5)CC4)cc2-3)c(C)c1 [Example A35-M1-B34]		4310 nM	1080 nM and 1580 nM	IC50 (LCK): 3500 nM; IC50 (VEGFR3): 3980 nM; IC50 (BRK): 4350 nM; IC50 (PKCbeta): 4170 nM; IC50 (FGFR1): 5760 nM; IC50 (ALK): 4910 nM
Cc1ccc(C(=O)Nc2n[nH]c3c2CCn2cc(C(=O)NCC(C)C)cc2-3)c(C)c1 [Example A35-M1-B39]			2850 nM	
Cc1ccc(C(=O)Nc2n[nH]c3c2CCn2cc(C(=O)NCC4CC4)cc2-3)c(C)c1 [Example A35-M1-B41]			2870 nM	
Cc1ccc(C(=O)Nc2n[nH]c3c2CCn2cc(C(=O)N4CCCCC4)cc2-3)c(C)c1 [Example A35-M1-B42]			2200 nM	
COCCNC(=O)c1cc2n(c1)CCCc1c(NC(=O)c3ccc(C)cc3C)n[nH]c1-2 [Example A35-M2-B33]			3820 nM	
C=CCNC(=O)c1cc2n(c1)CCCc1c(NC(=O)c3ccc(C)cc3C)n[nH]c1-2 [Example A35-M2-B36]			3980 nM	
Cc1ccc(C(=O)Nc2n[nH]c3c2CCCn2cc(C(=O)NCC(C)C)cc2-3)c(C)c1 [Example A35-M2-B39]			1410 nM	
O=C(NCC1CC1)c1cc2n(c1)CCc1c(NC(=O)c3c(Cl)cccc3Cl)n[nH]c1-2 [Example A38-M1-B41]				IC50 (LCK): 4130 nM
O=C(NCC1CC1)c1cc2n(c1)CCCc1c(NC(=O)c3c(Cl)cccc3Cl)n[nH]c1-2 [Example A38-M2-B41]			2820 nM	
Cc1cc(C)c(C(=O)Nc2n[nH]c3c2CCn2cc(C(=O)N4CCCC4)cc2-3)c(C)c1 [Example A39-M1-B8]			750 nM	
Cc1cc(C)c(C(=O)Nc2n[nH]c3c2CCn2cc(C(=O)N4CCC(N5CCCCC5)CC4)cc2-3)c(C)c1 [Example A39-M1-B34]			5540 nM	
CCS(=O)(=O)Nc1n[nH]c2c1CCCn1cc(C(=O)NCCOC)cc1-2 [Example A42-M2-B33]				IC50 (ZAP70): 1830 nM; IC50 (Syk): 3150 nM
